Where two headings read alike, the source gives them in different places. A value given as a limit tells only on which side of the number the result lay.

The test system of experiment [1] is SCD1. Kind of experiment: Measurement of SCD1 expression in SZ95-SCD1-HiBit cells (HiBiT assay). The class given is cell-based. To be noted: Homo sapiens, 48 h; for EC50: SCD1 protein production, luminescence, initial dilution 1:3 in DMSO, read-out: HiBit EC50.
Experiment [2] deals with SZ95 sebocytes. Kind of experiment: Sentinel Lipid Assay (SLA), desaturation index in SZ95 sebocytes. The class given is cell-based. To be noted: Homo sapiens, 72 h; for EC50: desaturation index, lowest dose used 4.6 nM, read-out: SLA EC50. The method, boiled down:
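SZ95 human sebocytes on fibronectin-coated plates, dosed 72 h at 37 °C with 1:3 dilutions from 10 μM; lipids extracted with deuterated triglyceride internal standards and quantified by LC-MS/MS (MRM) as 11 sentinel lipids. Desaturation index from elastic-net coefficients, normalized to DMSO; Amax relative to a reference LXR agonist.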

[3] abbreviates: normalized Amax based on the reference compound Amax of 100%, read-out: HiBit Normalized Amax.
[4] abbreviates: SZ95-SCD1-HiBit cells, compared to reference compound, read-out: HiBit Amax.
The mark [5] stands for this setting: normalized Amax based on the reference compound Amax of 100%, read-out: SLA Normalized Amax.
Where [6] appears, read: SZ95 cells, compared to reference compound, read-out: SLA Amax.

In general, EC50 refers to the concentration at which the effect is half-maximal. Consider `CC(C)CS(=O)(=O)c1ccccc1Oc1ccc(-c2noc(CN3C(=O)N(CCN4CCOCC4)C4(CCN(CC5CC5)CC4)C3=O)n2)cc1C(F)(F)F` [Compound 27, 8-(cyclopropylmethyl)-3-((3-(4-(2-(isobutylsulfonyl)phenoxy)-3-(trifluoromethyl)phenyl)-1,2,4-oxadiazol-5-yl)methyl)-1-(2-morpholinoethyl)-1,3,8-triazaspiro[4.5]decane-2,4-dione], for which the Emax came to 89.1% in experiment [1] (setting [3]), 84.7% in experiment [1] (setting [4]), 114% in experiment [2] (setting [5]) and 109% in experiment [2] (setting [6]). In addition, the EC50 in experiment [1] (SZ95-SCD1-HiBit cells) was 0.254 nM; in experiment [2] (SZ95 cells) it was not above 4.6 nM.

Take `CC1(C)C(=O)N(Cc2nc(-c3ccc(OCCC(F)(F)F)c(C(F)(F)F)c3)no2)C(=O)N1CCN1CCOCC1` [Compound 66, 5,5-dimethyl-1-(2-morpholinoethyl)-3-((3-(3-(trifluoromethyl)-4-(3,3,3-trifluoropropoxy)phenyl)-1,2,4-oxadiazol-5-yl)methyl)imidazolidine-2,4-dione]: the Emax in experiment [1] (setting [3]) was 82.3%; in experiment [1] (setting [4]) it was 78.2%; in experiment [2] (setting [5]) it was 99%; in experiment [2] (setting [6]), 95.1%. In addition, the EC50 in experiment [1] (SZ95-SCD1-HiBit cells) is 187 nM; in experiment [2] (SZ95 cells) it was 21.1 nM.

Regarding `CC(C)N(C)S(=O)(=O)c1ccccc1Oc1ccc(-c2noc(CN3C(=O)N(CCC4CCOCC4)C(C)(C)C3=O)n2)cc1C(F)(F)F` [Compound 5, 2-(4-(5-((4,4-dimethyl-2,5-dioxo-3-(2-(tetrahydro-2H-pyran-4-yl)ethyl)imidazolidin-1-yl)methyl)-1,2,4-oxadiazol-3-yl)-2-(trifluoromethyl)phenoxy)-N-isopropyl-N-methylbenzenesulfonamide], the Emax in experiment [1] (setting [3]) came out at 87.7%; in experiment [1] (setting [4]), 83.4%; in experiment [2] (setting [5]) it was 152%; in experiment [2] (setting [6]), 146%. Moreover, the figures for the 50% effective concentration (EC50) in experiment [1] (SZ95-SCD1-HiBit cells) and in experiment [2] (SZ95 cells) were 0.056 nM and not above 4.6 nM, respectively.

With `CC(CS(=O)(=O)c1ccccc1Oc1ccc(-c2noc(CN3C(=O)N(CCN4CCOCC4)C(C)(C)C3=O)n2)cc1C(F)(F)F)N1CCCC1` (stereo not drawn) [Compound 43, 5,5-dimethyl-1-(2-morpholinoethyl)-3-((3-(4-(2-((2-(pyrrolidin-1-yl)propyl)sulfonyl)phenoxy)-3-(trifluoromethyl)phenyl)-1,2,4-oxadiazol-5-yl)methyl)imidazolidine-2,4-dione], the Emax in experiment [1] (setting [3]) worked out at 84.1%; in experiment [1] (setting [4]) it was 80%; in experiment [2] (setting [5]), 147%; in experiment [2] (setting [6]), 141%. Further, the values for the EC50 in experiment [1] (SZ95-SCD1-HiBit cells) and in experiment [2] (SZ95 cells) were 1.15 nM and not above 4.6 nM, respectively.

As to `CC(C)CS(=O)(=O)c1ccccc1Oc1ccc(-c2noc(CN3C(=O)N(CCN4CCOCC4)C4(CCN(Cc5cccnn5)CC4)C3=O)n2)cc1C(F)(F)F` [Compound 25, 3-((3-(4-(2-(isobutylsulfonyl)phenoxy)-3-(trifluoromethyl)phenyl)-1,2,4-oxadiazol-5-yl)methyl)-1-(2-morpholinoethyl)-8-(pyridazin-3-ylmethyl)-1,3,8-triazaspiro[4.5]decane-2,4-dione], the Emax in experiment [1] (setting [3]) was determined as 98.2%; in experiment [1] (setting [4]), 93.4%; in experiment [2] (setting [5]), 190%; in experiment [2] (setting [6]), 182%. Moreover, the EC50 in experiment [1] (SZ95-SCD1-HiBit cells) is 1.62 nM; in experiment [2] (SZ95 cells) it was not above 4.6 nM.

For the molecule `CC(C)CS(=O)(=O)c1ccccc1Oc1ccc(-c2noc(CN3C(=O)N(Cc4ccccn4)C(C)(C)C3=O)n2)cc1C(F)(F)F` [Compound 51, 3-((3-(4-(2-(isobutylsulfonyl)phenoxy)-3-(trifluoromethyl)phenyl)-1,2,4-oxadiazol-5-yl)methyl)-5,5-dimethyl-1-(pyridin-2-ylmethyl)imidazolidine-2,4-dione], the Emax was determined as 88.7% in experiment [1] (setting [3]), 84.4% in experiment [1] (setting [4]), 120% in experiment [2] (setting [5]) and 116% in experiment [2] (setting [6]). Also, the EC50 was 12.2 nM in experiment [1] (SZ95-SCD1-HiBit cells) and not above 4.6 nM in experiment [2] (SZ95 cells).

In the case of `CC(C)CS(=O)(=O)c1ccccc1Oc1ccc(-c2noc(CN3C(=O)N(CCN4CCOCC4)C4(CCC4)C3=O)n2)cc1C(F)(F)F` [Compound 45, 7-((3-(4-(2-(isobutylsulfonyl)phenoxy)-3-(trifluoromethyl)phenyl)-1,2,4-oxadiazol-5-yl)methyl)-5-(2-morpholinoethyl)-5,7-diazaspiro[3.4]octane-6,8-dione], the Emax turned out to be 94.2% in experiment [1] (setting [3]), 89.6% in experiment [1] (setting [4]), 162% in experiment [2] (setting [5]) and 155% in experiment [2] (setting [6]). In addition, the EC50 in experiment [1] (SZ95-SCD1-HiBit cells) was 2.52 nM; in experiment [2] (SZ95 cells) it was not above 4.6 nM.

Regarding `O=C(O)Cc1cccc(OCCCN(Cc2cccc(C(F)(F)F)c2Cl)CC(c2ccccc2)c2ccccc2)c1` [Reference Compound, 2-(3-(3-((2-chloro-3-(trifluoromethyl)benzyl)(2,2-diphenylethyl)amino)propoxy)phenyl)acetic acid, reference compound], the Emax in experiment [1] (setting [3]) was 100%; in experiment [1] (setting [4]), 95.1%; in experiment [2] (setting [5]), 100%; in experiment [2] (setting [6]) it was 96%. The values for the EC50 in experiment [1] (SZ95-SCD1-HiBit cells) and in experiment [2] (SZ95 cells) were 65.4 nM and 87.3 nM, respectively.

Consider `CC1(C)C(=O)N(Cc2nc(-c3ccc(Oc4ccccc4S(=O)(=O)CC4CCCOC4)c(C(F)(F)F)c3)no2)C(=O)N1CCN1CCOCC1` (stereo not drawn) [Compound 40, 5,5-dimethyl-1-(2-morpholinoethyl)-3-((3-(4-(2-(((tetrahydro-2H-pyran-3-yl)methyl)sulfonyl)phenoxy)-3-(trifluoromethyl)phenyl)-1,2,4-oxadiazol-5-yl)methyl)imidazolidine-2,4-dione], for which the Emax in experiment [1] (setting [3]) is 74.7%; in experiment [1] (setting [4]), 71%; in experiment [2] (setting [5]), 168%; in experiment [2] (setting [6]), 161%. In addition, the EC50 was 7.08 nM in experiment [1] (SZ95-SCD1-HiBit cells) and not above 4.6 nM in experiment [2] (SZ95 cells).

As for `CC1(C)C(=O)N(Cc2nc(-c3ccc(Oc4ccccc4S(C)(=O)=O)c(C(F)(F)F)c3)no2)C(=O)N1CCN1CCOCC1` [Compound 55, 5,5-dimethyl-3-((3-(4-(2-(methylsulfonyl)phenoxy)-3-(trifluoromethyl)phenyl)-1,2,4-oxadiazol-5-yl)methyl)-1-(2-morpholinoethyl)imidazolidine-2,4-dione], the Emax in experiment [1] (setting [3]) came to 91.6%; in experiment [1] (setting [4]), 87.1%; in experiment [2] (setting [5]), 161%; in experiment [2] (setting [6]), 154%. The 50% effective concentration (EC50) in experiment [1] (SZ95-SCD1-HiBit cells) was 4.43 nM; in experiment [2] (SZ95 cells), not above 4.6 nM.

As for `CS(=O)(=O)c1ccccc1Oc1ccc(-c2noc(CN3C(=O)N(CCC4CCOCC4)C4(CCN(C5CCC5)CC4)C3=O)n2)cc1C(F)(F)F` [Compound 17, 8-cyclobutyl-3-((3-(4-(2-(methylsulfonyl)phenoxy)-3-(trifluoromethyl)phenyl)-1,2,4-oxadiazol-5-yl)methyl)-1-(2-(tetrahydro-2H-pyran-4-yl)ethyl)-1,3,8-triazaspiro[4.5]decane-2,4-dione], the Emax in experiment [1] (setting [3]) came out at 200%; in experiment [1] (setting [4]), 190%; in experiment [2] (setting [5]), 102%; in experiment [2] (setting [6]), 97.4%. In addition, the EC50 in experiment [1] (SZ95-SCD1-HiBit cells) is 0.041 nM; in experiment [2] (SZ95 cells), not above 4.6 nM.

For the molecule `CS(=O)(=O)c1ccccc1Oc1ccc(-c2noc(CN3C(=O)N(CCN4CCOCC4)C4(CCN(C5CCC5)CC4)C3=O)n2)cc1C(F)(F)F` [Compound 15, 8-cyclobutyl-3-((3-(4-(2-(methylsulfonyl)phenoxy)-3-(trifluoromethyl)phenyl)-1,2,4-oxadiazol-5-yl)methyl)-1-(2-morpholinoethyl)-1,3,8-triazaspiro[4.5]decane-2,4-dione], the Emax in experiment [1] (setting [3]) worked out at 88.3%; in experiment [1] (setting [4]), 84%; in experiment [2] (setting [5]), 121%; in experiment [2] (setting [6]), 116%. Moreover, the EC50 in experiment [1] (SZ95-SCD1-HiBit cells) is 0.101 nM; in experiment [2] (SZ95 cells), not above 4.6 nM.

In the case of `O=C1N(Cc2nc(-c3ccc(Oc4ccccc4C(F)(F)F)c(C(F)(F)F)c3)no2)C(=O)C2(CCN(C3CCC3)CC2)N1CCN1CCOCC1` [Compound 13, 8-cyclobutyl-1-(2-morpholinoethyl)-3-((3-(3-(trifluoromethyl)-4-(2-(trifluoromethyl)phenoxy)phenyl)-1,2,4-oxadiazol-5-yl)methyl)-1,3,8-triazaspiro[4.5]decane-2,4-dione], the Emax stood at 82.2% in experiment [1] (setting [3]), 78.2% in experiment [1] (setting [4]), 94.5% in experiment [2] (setting [5]) and 90.7% in experiment [2] (setting [6]). Further, the EC50 was 0.102 nM in experiment [1] (SZ95-SCD1-HiBit cells) and not above 4.6 nM in experiment [2] (SZ95 cells).

`O=C1N(Cc2nc(-c3ccc(Oc4ccccc4C(F)(F)F)c(C(F)(F)F)c3)no2)C(=O)C2(CCN(C3CCC3)CC2)N1CCC1CCOCC1` [Compound 12, 8-cyclobutyl-1-(2-(tetrahydro-2H-pyran-4-yl)ethyl)-3-((3-(3-(trifluoromethyl)-4-(2-(trifluoromethyl)phenoxy)phenyl)-1,2,4-oxadiazol-5-yl)methyl)-1,3,8-triazaspiro[4.5]decane-2,4-dione]: the Emax in experiment [1] (setting [3]) turned out to be 81.9%; in experiment [1] (setting [4]) it was 77.9%; in experiment [2] (setting [5]), 130%; in experiment [2] (setting [6]) it was 125%. Also, the half-maximal effective concentration (EC50) in experiment [1] (SZ95-SCD1-HiBit cells) was 0.081 nM; in experiment [2] (SZ95 cells), not above 4.6 nM.

With `CC(C)CS(=O)(=O)c1ccccc1Oc1ccc(-c2noc(CN3C(=O)N(CCN4CCOCC4)C4(CCN(Cc5cc(O)cc(O)c5)CC4)C3=O)n2)cc1C(F)(F)F` [Compound 21, 8-(3,5-dihydroxybenzyl)-3-((3-(4-(2-(isobutylsulfonyl)phenoxy)-3-(trifluoromethyl)phenyl)-1,2,4-oxadiazol-5-yl)methyl)-1-(2-morpholinoethyl)-1,3,8-triazaspiro[4.5]decane-2,4-dione], the Emax is 83.7% in experiment [1] (setting [3]), 79.6% in experiment [1] (setting [4]), 102% in experiment [2] (setting [5]) and 97.5% in experiment [2] (setting [6]). For the same molecule, the figures for the EC50 in experiment [1] (SZ95-SCD1-HiBit cells) and in experiment [2] (SZ95 cells) were 0.241 nM and not above 4.6 nM, respectively.

(Values after patent publication US11427586B2, “1,2,4-oxadiazole derivatives as liver X receptor agonists” (NOVARTIS AG, priority 2019, dated 2022).)
